Patent publication US20070275962A1, “Heterobicyclic Compounds as Pharmaceutically Active Agents” (GPC BIOTECH AG, priority 2003, published 2007)

What was measured:
Format in all cases: biochemical
[1] = biological target: CDK1/CycB act.GST-HIS (Homo sapiens, UniProt P06493); assay: General kinase assay: CDK1/CycB; settings: concentration 10 μM; read-out: Inhibitory effect on Target CDK1/CycB act.GST-HIS
Procedure: (§1) General Assay Protocol for all Kinases [[[…]]] [[[…]]] Reaction Buffer: Final Assay Concentrations: [[[…]]] Pipetting Sequence: • 1) Add 8 μl 50 μM MBP in Reaction Buffer to each well of Assay Plate • 2) Add 10 μl 500 mM EDTA in H2O to C- wells • 3) Add 8 μl 62.5 μCi/ml Adenosine 5'-[γ-^33P]triphosphate+5 μM ATP in Reaction Buffer to each well • 4) Add 8 μl 5 fold concentrated inhibitor in 5% DMSO in Reaction Buffer to each well except to C- and C+ wells • 5) Add 8 μl 5% DMSO in Reaction Buffer to C- and C+ wells • 6) Add 8 μl 5 fold concentrated kinase in Reaction Buffer to each well • 7) Incubate 1 hr at room temperature • 8) Add 10 μl 50 mM EDTA in H2O to each well except to C- wells • 9) Prepare MAPH plates by adding 200 μl 0.75% H3PO4 to each well • 10) Exhaust 0.75% H3PO4 using Millipore vacuum station • 11) Add 60 μl 0.75% H3PO4 to each well of MAPH Filter Plate • 12) Transfer 30 μl sample per well from Assay Plate to corresponding well of MAPH Filter Plate • 13) Incubate 30 min at room temperature • 14) Wash each well of MAPH Filter Plates 3× with 200 μl 0.75% H3PO4 using Millipore vacuum station • 15) Add 20 μl Szintilation Liquid to each well of MAPH Filter Plate • 16) Seal MAPH Filter Plate • 17) Store MAPH Filter Plate 30 min in darkness • 18) Quantify radioactivity

[2] = biological target: T1, Kit human GST (Homo sapiens, UniProt P10721); assay: General kinase assay: Kit; settings: concentration 10 μM; read-out: Inhibitory effect on Target Kit human GST
T1 construct: GST
Procedure: as §1

[3] = biological target: T2, PDGFRbeta GST (Homo sapiens, UniProt P09619); assay: General kinase assay: PDGFRbeta; settings: concentration 10 μM; read-out: Inhibitory effect on Target PDGFRbeta GST
T2 construct: GST
Procedure: as §1

[4] = biological target: T3, SRPK1 GST (Homo sapiens, UniProt Q96SB4); assay: General kinase assay: SRPK1; settings: concentration 10 μM; read-out: Inhibitory effect on Target SRPK1 GST
T3 construct: GST
Procedure: as §1

T3 sequence (Q96SB4 whole entry): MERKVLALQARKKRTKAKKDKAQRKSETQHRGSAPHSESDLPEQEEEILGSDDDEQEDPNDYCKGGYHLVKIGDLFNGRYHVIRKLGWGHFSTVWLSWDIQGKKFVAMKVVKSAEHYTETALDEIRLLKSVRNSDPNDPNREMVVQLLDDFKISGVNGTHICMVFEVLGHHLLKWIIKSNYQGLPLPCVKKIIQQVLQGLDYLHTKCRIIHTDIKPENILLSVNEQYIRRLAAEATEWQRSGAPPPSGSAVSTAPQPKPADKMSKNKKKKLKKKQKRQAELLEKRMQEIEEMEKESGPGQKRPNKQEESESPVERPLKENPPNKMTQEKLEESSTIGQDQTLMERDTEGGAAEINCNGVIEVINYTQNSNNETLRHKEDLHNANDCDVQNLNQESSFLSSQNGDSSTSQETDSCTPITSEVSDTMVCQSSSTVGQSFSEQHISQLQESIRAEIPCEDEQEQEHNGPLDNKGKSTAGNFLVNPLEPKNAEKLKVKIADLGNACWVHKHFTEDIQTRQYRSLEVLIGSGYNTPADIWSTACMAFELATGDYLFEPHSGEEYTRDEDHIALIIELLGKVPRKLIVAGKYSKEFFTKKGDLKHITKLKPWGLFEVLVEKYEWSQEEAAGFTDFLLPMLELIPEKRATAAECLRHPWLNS
CDK1/CycB act.GST-HIS, sequence (P06493 whole entry, species assumed): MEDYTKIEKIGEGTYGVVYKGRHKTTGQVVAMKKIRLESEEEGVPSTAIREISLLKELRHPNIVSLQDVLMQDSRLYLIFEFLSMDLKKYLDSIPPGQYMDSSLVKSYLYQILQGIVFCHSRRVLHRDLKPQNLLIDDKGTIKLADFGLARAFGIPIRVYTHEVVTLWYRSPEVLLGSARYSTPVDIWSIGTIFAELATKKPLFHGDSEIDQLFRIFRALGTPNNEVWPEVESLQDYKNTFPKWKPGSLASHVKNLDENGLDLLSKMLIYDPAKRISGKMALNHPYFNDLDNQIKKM
CDK1/CycB act.GST-HIS, sequence (P14635 whole entry partner, species assumed): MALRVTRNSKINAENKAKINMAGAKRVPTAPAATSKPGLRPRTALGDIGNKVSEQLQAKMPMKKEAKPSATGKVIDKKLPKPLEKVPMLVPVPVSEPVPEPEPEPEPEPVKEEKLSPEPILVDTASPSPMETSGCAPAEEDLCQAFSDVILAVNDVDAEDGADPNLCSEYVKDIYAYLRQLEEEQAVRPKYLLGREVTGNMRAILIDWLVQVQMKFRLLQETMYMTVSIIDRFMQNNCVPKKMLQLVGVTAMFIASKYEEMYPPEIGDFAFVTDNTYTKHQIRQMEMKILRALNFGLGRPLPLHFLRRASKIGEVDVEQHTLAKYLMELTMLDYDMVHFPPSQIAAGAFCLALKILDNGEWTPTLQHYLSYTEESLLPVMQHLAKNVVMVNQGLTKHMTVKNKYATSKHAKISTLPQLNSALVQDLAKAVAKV
T2 sequence (P09619 33-1106): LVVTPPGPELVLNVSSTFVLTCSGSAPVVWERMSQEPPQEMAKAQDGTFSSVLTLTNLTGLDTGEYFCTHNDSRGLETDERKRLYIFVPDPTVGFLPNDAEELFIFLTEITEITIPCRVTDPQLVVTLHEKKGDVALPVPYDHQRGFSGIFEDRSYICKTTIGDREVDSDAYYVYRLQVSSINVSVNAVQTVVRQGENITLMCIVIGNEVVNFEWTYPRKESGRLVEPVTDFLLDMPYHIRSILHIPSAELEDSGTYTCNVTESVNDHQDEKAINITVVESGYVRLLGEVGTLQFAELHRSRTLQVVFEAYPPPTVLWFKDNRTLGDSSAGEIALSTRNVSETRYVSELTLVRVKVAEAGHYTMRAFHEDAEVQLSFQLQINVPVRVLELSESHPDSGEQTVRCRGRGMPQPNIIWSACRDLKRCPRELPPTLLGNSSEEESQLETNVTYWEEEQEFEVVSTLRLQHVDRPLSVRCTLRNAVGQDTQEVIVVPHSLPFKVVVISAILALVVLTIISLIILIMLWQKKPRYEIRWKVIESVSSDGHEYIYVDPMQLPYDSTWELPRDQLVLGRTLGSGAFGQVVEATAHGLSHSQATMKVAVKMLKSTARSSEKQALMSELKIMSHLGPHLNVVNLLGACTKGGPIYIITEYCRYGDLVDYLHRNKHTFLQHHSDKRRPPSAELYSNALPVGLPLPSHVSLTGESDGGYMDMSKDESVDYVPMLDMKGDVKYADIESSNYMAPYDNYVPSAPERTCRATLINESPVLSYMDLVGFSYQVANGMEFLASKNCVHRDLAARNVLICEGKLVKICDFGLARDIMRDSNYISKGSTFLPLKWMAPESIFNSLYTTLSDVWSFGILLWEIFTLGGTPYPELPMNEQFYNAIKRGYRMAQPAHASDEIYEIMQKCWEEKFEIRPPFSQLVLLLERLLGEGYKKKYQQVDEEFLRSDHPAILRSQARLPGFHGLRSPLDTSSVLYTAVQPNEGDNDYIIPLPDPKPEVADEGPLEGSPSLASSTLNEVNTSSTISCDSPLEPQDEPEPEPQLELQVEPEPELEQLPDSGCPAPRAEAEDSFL
T1 sequence (P10721 26-976): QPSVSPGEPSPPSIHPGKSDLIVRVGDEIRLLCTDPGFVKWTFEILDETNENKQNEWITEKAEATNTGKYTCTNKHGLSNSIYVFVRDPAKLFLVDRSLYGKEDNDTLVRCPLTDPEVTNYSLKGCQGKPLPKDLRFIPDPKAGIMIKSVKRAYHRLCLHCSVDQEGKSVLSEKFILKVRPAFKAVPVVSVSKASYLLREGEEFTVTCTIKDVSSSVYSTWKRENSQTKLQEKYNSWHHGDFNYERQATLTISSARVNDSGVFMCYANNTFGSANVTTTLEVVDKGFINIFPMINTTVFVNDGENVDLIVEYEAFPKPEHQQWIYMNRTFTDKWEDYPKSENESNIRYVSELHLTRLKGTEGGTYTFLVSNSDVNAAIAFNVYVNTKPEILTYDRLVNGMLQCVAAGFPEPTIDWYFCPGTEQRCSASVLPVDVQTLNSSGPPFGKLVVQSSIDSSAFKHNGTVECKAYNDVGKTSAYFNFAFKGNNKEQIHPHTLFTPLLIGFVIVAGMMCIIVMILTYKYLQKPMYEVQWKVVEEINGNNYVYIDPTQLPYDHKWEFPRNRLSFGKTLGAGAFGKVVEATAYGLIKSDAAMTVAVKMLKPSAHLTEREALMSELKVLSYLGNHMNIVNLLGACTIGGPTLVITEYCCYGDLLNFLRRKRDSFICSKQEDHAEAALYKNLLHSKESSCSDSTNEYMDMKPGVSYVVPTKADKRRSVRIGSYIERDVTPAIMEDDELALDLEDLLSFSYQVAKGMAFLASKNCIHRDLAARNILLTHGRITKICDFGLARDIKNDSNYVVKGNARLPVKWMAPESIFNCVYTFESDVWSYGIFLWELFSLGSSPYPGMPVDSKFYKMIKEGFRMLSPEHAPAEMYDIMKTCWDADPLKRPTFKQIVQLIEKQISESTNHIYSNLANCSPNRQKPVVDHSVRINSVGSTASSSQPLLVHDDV

inhibition at 10 µM [1]: > 50%
inhibition at 10 µM [2]: > 50%
inhibition at 10 µM [3]: > 50%
inhibition at 10 µM [4]: > 50%
Structure (SMILES): NC(=O)c1c(NC(=O)Nc2ccc(F)cc2)sc2c1CCOC2 [Compound B13, 2-[3-(4-Fluoro-phenyl)-ureido]-4,7-dihydro-5H-thieno[2,3-c]pyran-3-carboxylic acid amide]
